# ± gives the expanded uncertainty stated by the source.
# How the values were obtained:
# [1] = 298.1 K; 101.33 kPa; Liquid; vibrating tube
# [2] = excess molar enthalpy (molar enthalpy of mixing); xn = mol fraction of the nth substance listed; settings: 101 kPa, Liquid
smiles,measurement,setting,value
CCCOC(=O)CC [propyl propanoate],mass density,[1],875.53 ± 0.45 kg/m3
CCCCCCO [hexan-1-ol],mass density,[1],815.16 ± 0.42 kg/m3
c1ccccc1 [benzene],mass density,[1],873.45 ± 0.23 kg/m3
CCCOC(=O)CC [propyl propanoate] + CCCCCCO,excess molar enthalpy,"[2]; 308 K, x1 = 0.0406",0.0552 ± 0.0012 kcal/mol
same,excess molar enthalpy,"[2]; 308 K, x1 = 0.089",0.116 ± 0.00239 kcal/mol
same,excess molar enthalpy,"[2]; 308 K, x1 = 0.1367",0.17 ± 0.00335 kcal/mol
same,excess molar enthalpy,"[2]; 308 K, x1 = 0.1766",0.208 ± 0.00382 kcal/mol
same,excess molar enthalpy,"[2]; 308 K, x1 = 0.247",0.269 ± 0.00502 kcal/mol
same,excess molar enthalpy,"[2]; 308 K, x1 = 0.3217",0.315 ± 0.00574 kcal/mol
same,excess molar enthalpy,"[2]; 308 K, x1 = 0.3805",0.34 ± 0.00621 kcal/mol
same,excess molar enthalpy,"[2]; 308 K, x1 = 0.4198",0.355 ± 0.00645 kcal/mol
same,excess molar enthalpy,"[2]; 308 K, x1 = 0.4667",0.361 ± 0.00645 kcal/mol
same,excess molar enthalpy,"[2]; 308 K, x1 = 0.5259",0.367 ± 0.00669 kcal/mol
same,excess molar enthalpy,"[2]; 308 K, x1 = 0.5961",0.362 ± 0.00645 kcal/mol
same,excess molar enthalpy,"[2]; 308 K, x1 = 0.6484",0.349 ± 0.00621 kcal/mol
same,excess molar enthalpy,"[2]; 308 K, x1 = 0.6999",0.327 ± 0.00598 kcal/mol
same,excess molar enthalpy,"[2]; 308 K, x1 = 0.7542",0.299 ± 0.0055 kcal/mol
same,excess molar enthalpy,"[2]; 308 K, x1 = 0.7995",0.263 ± 0.00478 kcal/mol
same,excess molar enthalpy,"[2]; 308 K, x1 = 0.8595",0.205 ± 0.00382 kcal/mol
same,excess molar enthalpy,"[2]; 308 K, x1 = 0.9109",0.143 ± 0.00287 kcal/mol
same,excess molar enthalpy,"[2]; 308 K, x1 = 0.9496",0.0872 ± 0.00191 kcal/mol
CCCCCCO [hexan-1-ol] + c1ccccc1,excess molar enthalpy,"[2]; 298 K, x1 = 0.0619",0.155 ± 0.00287 kcal/mol
same,excess molar enthalpy,"[2]; 298 K, x1 = 0.0988",0.197 ± 0.00359 kcal/mol
same,excess molar enthalpy,"[2]; 298 K, x1 = 0.1383",0.231 ± 0.0043 kcal/mol
same,excess molar enthalpy,"[2]; 298 K, x1 = 0.1909",0.258 ± 0.00478 kcal/mol
same,excess molar enthalpy,"[2]; 298 K, x1 = 0.2287",0.273 ± 0.00502 kcal/mol
same,excess molar enthalpy,"[2]; 298 K, x1 = 0.2675",0.283 ± 0.00526 kcal/mol
same,excess molar enthalpy,"[2]; 298 K, x1 = 0.3137",0.289 ± 0.00526 kcal/mol
same,excess molar enthalpy,"[2]; 298 K, x1 = 0.3792",0.291 ± 0.00526 kcal/mol
same,excess molar enthalpy,"[2]; 298 K, x1 = 0.4153",0.284 ± 0.00526 kcal/mol
same,excess molar enthalpy,"[2]; 298 K, x1 = 0.4625",0.271 ± 0.00502 kcal/mol
same,excess molar enthalpy,"[2]; 298 K, x1 = 0.5107",0.261 ± 0.00478 kcal/mol
same,excess molar enthalpy,"[2]; 298 K, x1 = 0.5648",0.242 ± 0.00454 kcal/mol
same,excess molar enthalpy,"[2]; 298 K, x1 = 0.6192",0.217 ± 0.00406 kcal/mol
same,excess molar enthalpy,"[2]; 298 K, x1 = 0.7214",0.163 ± 0.00311 kcal/mol
same,excess molar enthalpy,"[2]; 298 K, x1 = 0.7711",0.139 ± 0.00263 kcal/mol
same,excess molar enthalpy,"[2]; 298 K, x1 = 0.8482",0.0908 ± 0.00191 kcal/mol
same,excess molar enthalpy,"[2]; 298 K, x1 = 0.8884",0.0691 ± 0.00143 kcal/mol
same,excess molar enthalpy,"[2]; 298 K, x1 = 0.979",0.0136 ± 0.000717 kcal/mol
same,excess molar enthalpy,"[2]; 308 K, x1 = 0.037",0.115 ± 0.00239 kcal/mol
same,excess molar enthalpy,"[2]; 308 K, x1 = 0.0647",0.173 ± 0.00335 kcal/mol
same,excess molar enthalpy,"[2]; 308 K, x1 = 0.1001",0.217 ± 0.00406 kcal/mol
same,excess molar enthalpy,"[2]; 308 K, x1 = 0.1428",0.256 ± 0.00478 kcal/mol
same,excess molar enthalpy,"[2]; 308 K, x1 = 0.1815",0.279 ± 0.00502 kcal/mol
same,excess molar enthalpy,"[2]; 308 K, x1 = 0.2272",0.299 ± 0.0055 kcal/mol
same,excess molar enthalpy,"[2]; 308 K, x1 = 0.2476",0.306 ± 0.0055 kcal/mol
same,excess molar enthalpy,"[2]; 308 K, x1 = 0.3195",0.317 ± 0.00574 kcal/mol
same,excess molar enthalpy,"[2]; 308 K, x1 = 0.3867",0.322 ± 0.00598 kcal/mol
same,excess molar enthalpy,"[2]; 308 K, x1 = 0.463",0.313 ± 0.00574 kcal/mol
same,excess molar enthalpy,"[2]; 308 K, x1 = 0.4675",0.31 ± 0.00574 kcal/mol
same,excess molar enthalpy,"[2]; 308 K, x1 = 0.5017",0.303 ± 0.0055 kcal/mol
same,excess molar enthalpy,"[2]; 308 K, x1 = 0.5463",0.288 ± 0.00526 kcal/mol
same,excess molar enthalpy,"[2]; 308 K, x1 = 0.593",0.266 ± 0.00478 kcal/mol
same,excess molar enthalpy,"[2]; 308 K, x1 = 0.6577",0.231 ± 0.0043 kcal/mol
same,excess molar enthalpy,"[2]; 308 K, x1 = 0.7485",0.177 ± 0.00335 kcal/mol
same,excess molar enthalpy,"[2]; 308 K, x1 = 0.8067",0.137 ± 0.00263 kcal/mol
same,excess molar enthalpy,"[2]; 308 K, x1 = 0.8318",0.119 ± 0.00239 kcal/mol
same,excess molar enthalpy,"[2]; 308 K, x1 = 0.8867",0.0796 ± 0.00167 kcal/mol
same,excess molar enthalpy,"[2]; 308 K, x1 = 0.9323",0.0478 ± 0.0012 kcal/mol

# Reference: the NIST ThermoML archive (doi:10.1021/je0201370)
